Laboratory results reported in patent US20110053916A1 (Vertex Pharmaceuticals Incorporated, priority 2009, published 2011).
Counter-ions that a name gives are not always drawn.

Target: T1, PknB (Mycobacterium tuberculosis, UniProt P9WI81)
T1 construct: made in house
Experiment: biochemical
Parameters: species or system M. tuberculosis
Conditions: not given

T1 sequence (P9WI81 whole entry): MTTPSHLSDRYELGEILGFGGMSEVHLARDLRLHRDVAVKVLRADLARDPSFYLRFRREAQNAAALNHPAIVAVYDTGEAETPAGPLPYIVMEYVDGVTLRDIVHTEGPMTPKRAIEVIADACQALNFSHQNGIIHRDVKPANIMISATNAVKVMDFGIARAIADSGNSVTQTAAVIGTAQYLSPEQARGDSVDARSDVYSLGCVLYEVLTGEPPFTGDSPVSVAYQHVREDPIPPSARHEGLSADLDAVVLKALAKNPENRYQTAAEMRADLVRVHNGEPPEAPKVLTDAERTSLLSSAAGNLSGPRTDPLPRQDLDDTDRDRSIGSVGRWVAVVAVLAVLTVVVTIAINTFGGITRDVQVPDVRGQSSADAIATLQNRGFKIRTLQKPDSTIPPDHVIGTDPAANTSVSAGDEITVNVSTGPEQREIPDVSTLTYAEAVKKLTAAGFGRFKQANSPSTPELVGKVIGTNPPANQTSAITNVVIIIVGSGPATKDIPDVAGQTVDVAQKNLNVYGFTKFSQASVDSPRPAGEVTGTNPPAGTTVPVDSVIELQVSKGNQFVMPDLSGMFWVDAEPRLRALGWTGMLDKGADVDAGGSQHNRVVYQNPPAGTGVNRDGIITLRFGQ

Row | SMILES | Ki Values | Ki [µM]
1 | C#Cc1cnc(-c2ccc(C(=O)OC)s2)nc1Nc1cc(C2CC2)[nH]n1 [Compound 151, Methyl 5-(4-(5-cyclopropyl-1H-pyrazol-3-ylamino)-5-ethynylpyrimidin-2-yl)thiophene-2-carboxylate hydrochloride] | A**, A* | 
2 | COC(=O)c1ccc(-c2ncc(Cl)c(Nc3cc(C4CC4)n[nH]3)n2)s1 [Compound 154, Methyl5-(5-chloro-4-(3-cyclopropyl-1H-pyrazol-5-ylamino)pyrimidin-2-yl)thiophene-2-carboxylate hydrochloride] |  | 0.01 to 0.05

Same assay, conditions: 3 nM PknB, 6 uM GarA, 3 μM ATP, 30 min; competitive tight-binding fit; several symbols in a cell = repeat determinations

Row | SMILES | Ki Values
3 | O=C(NC1CCCCC1)c1nccc(Nc2cc(C3CC3)n[nH]2)n1 [Compound 109, N-cyclohexyl-4-[(5-cyclopropyl-2H-pyrazol-3-yl)amino]pyrimidine-2-carboxamide] | B, B*
4 | CC(=O)c1ccc(-c2ncc(Cl)c(Nc3cc(C4CC4)[nH]n3)n2)s1 [Compound 116, 1-(5-(5-chloro-4-(5-cyclopropyl-1H-pyrazol-3-ylamino)pyrimidin-2-yl)thiophen-2-yl)ethanone] | A**, A*
5 | C[C@H](O)c1ccc(-c2ncc(Cl)c(Nc3cc(C4CC4)[nH]n3)n2)s1 [Compound 132, (S)-1-(5-(4-(5-cyclopropyl-1H-pyrazol-3-ylamino)-5-chloropyrimidin-2-yl)thiophen-2-yl)ethanol] | A**, A*
6 | O=C(O)c1cccc(-c2ncc(Cl)c(Nc3cc(C4CC4)[nH]n3)n2)c1 [Compound 142, 3-[5-chloro-4-[(5-cyclopropyl-1H-pyrazol-3-yl)amino]-pyrimidin-2-yl]benzoic acid] | A*, A, B**, B**
7 | CC(=O)c1ccc(-c2ncc(Br)c(Nc3cc(C4CC4)[nH]n3)n2)s1 [Compound 165, 1-[5-[5-bromo-4-[(5-cyclopropyl-1H-pyrazol-3-yl)amino]-pyrimidin-2-yl]-2-thienyl]ethanone] | A**, A*
8 | C#Cc1cnc(-c2ccc(CNC(=O)OC(C)(C)C)s2)nc1Nc1cc(C2CC2)[nH]n1 [Compound 168, Tert-butyl (5-(4-(5-cyclopropyl-1H-pyrazol-3-ylamino)-5-ethynylpyrimidin-2-yl)thiophen-2-yl)methylcarbamate] | B**, B**, B
9 | C#Cc1cnc(N2CC[C@H](NC(=O)OC(C)(C)C)C2)nc1Nc1cc(C2CC2)n[nH]1 [Compound 169, tert-butyl [[1-[4-[(5-cyclopropyl-2H-pyrazol-3-yl)amino]-5-ethynyl-pyrimidin-2-yl]pyrrolidin-3-yl]amino]formate] | C, D

Same assay, conditions: 3 nM PknB, 6 uM GarA, 3 μM ATP, 30 min; competitive tight-binding fit; several symbols in a cell = repeat determinations; read-out: Ki Values

Row | SMILES | Ki [µM]
10 | CC(C)(C)NS(=O)(=O)c1cccc(-c2ncc(O)c(Nc3cc(C4CC4)n[nH]3)n2)c1 [Compound 102, N-tert-butyl-3-(4-(3-cyclopropyl-1H-pyrazol-5-ylamino)-5-hydroxypyrimidin-2-yl)benzenesulfonamide] | 0.05 to 0.1
11 | C#Cc1cnc(-c2cccc(S(N)(=O)=O)c2)nc1Nc1cc(C2CC2)[nH]n1 [Compound 110, 3-(4-(5-cyclopropyl-1H-pyrazol-3-ylamino)-5-ethynylpyrimidin-2-yl)benzene sulfonamide] | 0.01 to 0.05
12 | CC(=O)NCCNS(=O)(=O)c1ccc(-c2ncc(Cl)c(Nc3cc(C4CC4)[nH]n3)n2)s1 [Compound 118, N-(2-(5-(5-chloro-4-(5-cyclopropyl-1H-pyrazol-3-ylamino)pyrimidin-2-yl)thiophene-2-sulfonamido)ethyl)acetamide] | 0.01 to 0.05
13 | C#Cc1cnc(-c2ccc(C(=C)C)s2)nc1Nc1cc(C2CC2)n[nH]1 [Compound 119, N-(5-cyclopropyl-2H-pyrazol-3-yl)-5-ethynyl-2-(5-isopropenyl-2-thienyl)-pyrimidin-4-amine] | 0.01 to 0.05
14 | NS(=O)(=O)c1ccccc1Nc1nccc(Nc2cc(C3CC3)[nH]n2)n1 [Compound 120, 2-[[4-[(5-cyclopropyl-1H-pyrazol-3-yl)amino]pyrimidin-2-yl]amino]benzenesulfonamide] | 0.1 to 0.5
15 | NS(=O)(=O)c1ccc(-c2ncc(Cl)c(Nc3cc(C4CC4)[nH]n3)n2)cc1 [Compound 121, 4-[5-chloro-4-[(5-cyclopropyl-1H-pyrazol-3-yl)amino]-pyrimidin-2-yl]benzenesulfonamide] | 0.01 to 0.05
16 | C#Cc1cnc(-c2cccc(S(=O)(=O)NCCO)c2)nc1Nc1cc(C2CC2)[nH]n1 [Compound 122, 3-(4-(3-Cyclopropyl-1H-pyrazol-5-ylamino)-5-ethynylpyrimidin-2-yl)-N-(2-hydroxyethyl)benzene sulfonamide] | 0.01 to 0.05
17 | NC(=O)c1cccc(Nc2nccc(Nc3cc(C4CC4)[nH]n3)n2)c1 [Compound 125, 3-[[4-[(5-cyclopropyl-1H-pyrazol-3-yl)amino]pyrimidin-2-yl]amino]benzamide] | 0.5 to 1
18 | CNS(=O)(=O)c1cccc(-c2ncc(Cl)c(Nc3cc(C4CC4)[nH]n3)n2)c1 [Compound 127, 3-[5-chloro-4-[(5-cyclopropyl-1H-pyrazol-3-yl)amino]-pyrimidin-2-yl]-N-methyl-benzenesulfonamide] | 0.01 to 0.05
19 | C#Cc1cnc(-c2ccc(CC#N)s2)nc1Nc1cc(C2CC2)n[nH]1 [Compound 130, 2-(5-(4-(3-Cyclopropyl-1H-pyrazol-5-ylamino)-5-ethynylpyrimidin-2-yl)thiophen-2-yl)acetonitrile] | 0.001 to 0.01
20 | CN(CCO)S(=O)(=O)c1cccc(-c2ncc(Cl)c(Nc3cc(C4CC4)[nH]n3)n2)c1 [Compound 134, 3-[5-chloro-4-[(5-cyclopropyl-1H-pyrazol-3-yl)amino]-pyrimidin-2-yl]-N-(2-hydroxyethyl)-N-methyl-benzenesulfonamide] | 0.01 to 0.05
21 | O=S(=O)(c1ccc(-c2ncc(Cl)c(Nc3cc(C4CC4)[nH]n3)n2)s1)N1CCNCC1 [Compound 135, 5-chloro-N-(5-cyclopropyl-1H-pyrazol-3-yl)-2-(5-piperazin-1-ylsulfonyl-2-thienyl)-pyrimidin-4-amine] | 0.01 to 0.05
22 | CC(=O)c1ccc(-c2ncc(F)c(Nc3cc(C4CC4)[nH]n3)n2)s1 [Compound 137, 1-(5-(4-(5-cyclopropyl-1H-pyrazol-3-ylamino)-5-fluoropyrimidin-2-yl)thiophen-2-yl)ethanone] | 0.01 to 0.05
23 | N#Cc1ccc(-c2ncc(Cl)c(Nc3cc(C4CC4)[nH]n3)n2)s1 [Compound 140, 5-(5-chloro-4-(5-cyclopropyl-1H-pyrazol-3-ylamino)pyrimidin-2-yl)thiophene-2-carbonitrile] | 0.01 to 0.05
24 | N#CCc1ccc(-c2ncc(Cl)c(Nc3cc(C4CC4)n[nH]3)n2)s1 [Compound 143, 2-(5-(5-chloro-4-(3-cyclopropyl-1H-pyrazol-5-ylamino)pyrimidin-2-yl)thiophen-2-yl)acetonitrile] | 0.001 to 0.01
25 | Cc1cnc(-c2ccc(S(N)(=O)=O)s2)nc1Nc1cc(C2CC2)n(C)n1 [Compound 150, 5-[4-[(5-cyclopropyl-1-methyl-pyrazol-3-yl)amino]-5-methyl-pyrimidin-2-yl]thiophene-2-sulfonamide] | > 4
26 | O=S(=O)(NC1CCOC1)c1ccc(-c2ncc(Cl)c(Nc3cc(C4CC4)[nH]n3)n2)s1 (stereo not drawn) [Compound 152, 5-[5-chloro-4-[(5-cyclopropyl-1H-pyrazol-3-yl)amino]-pyrimidin-2-yl]-N-tetrahydrofuran-3-yl-thiophene-2-sulfonamide] | 0.01 to 0.05
27 | C#Cc1cnc(-c2ccc(S(C)(=O)=O)cc2)nc1Nc1cc(C2CC2)[nH]n1 [Compound 153, N-(5-Cyclopropyl-1H-pyrazol-3-yl)-5-ethynyl-2-(4-(methylsulfonyl)phenyl)pyrimidin-4-amine] | 0.01 to 0.05
28 | NS(=O)(=O)c1ccccc1-c1ncc(Cl)c(Nc2cc(C3CC3)[nH]n2)n1 [Compound 155, 2-[5-chloro-4-[(5-cyclopropyl-1H-pyrazol-3-yl)amino]-pyrimidin-2-yl]benzenesulfonamide] | > 4
29 | O=C(O)c1ccc(-c2ncc(Cl)c(Nc3cc(C4CC4)n[nH]3)n2)s1 [Compound 156, 5-(5-chloro-4-(3-cyclopropyl-1H-pyrazol-5-ylamino)pyrimidin-2-yl)thiophene-2-carboxylic acid] | 0.05 to 0.1
30 | C#Cc1cnc(-c2ccc(C#N)s2)nc1Nc1cc(C2CC2)[nH]n1 [Compound 157, 5-(4-(5-Cyclopropyl-1H-pyrazol-3-ylamino)-5-ethynylpyrimidin-2-yl)thiophene-2-carbonitrile] | 0.001 to 0.01
31 | O=S(=O)(NCC(F)(F)F)c1ccc(-c2ncc(Cl)c(Nc3cc(C4CC4)[nH]n3)n2)s1 [Compound 158, 5-[5-chloro-4-[(5-cyclopropyl-1H-pyrazol-3-yl)amino]-pyrimidin-2-yl]-N-(2,2,2-trifluoroethyl)thiophene-2-sulfonamide] | 0.01 to 0.05
32 | COc1ccc(-c2ncc(Cl)c(Nc3cc(C4CC4)[nH]n3)n2)cc1S(N)(=O)=O [Compound 161, 5-[5-chloro-4-[(5-cyclopropyl-1H-pyrazol-3-yl)amino]-pyrimidin-2-yl]-2-methoxy-benzenesulfonamide] | 0.05 to 0.1
33 | CC(C)(C)NS(=O)(=O)c1ccc(-c2ncc(C(F)(F)F)c(Nc3cc(C4CC4)n[nH]3)n2)s1 [Compound 162, 5-[4-[(5-cyclopropyl-2H-pyrazol-3-yl)amino]-5-(trifluoromethyl)pyrimidin-2-yl]-N-tert-butyl-thiophene-2-sulfonamide] | 0.5 to 1
34 | CC(C)(C)NS(=O)(=O)c1ccc(-c2ncc(CO)c(Nc3cc(C4CC4)[nH]n3)n2)s1 [Compound 163, N-tert-butyl-5-(4-(5-cyclopropyl-1H-pyrazol-3-ylamino)-5-(hydroxymethyl)pyrimidin-2-yl)thiophene-2-sulfonamide] | 0.1 to 0.5
35 | Clc1cnc(-c2ccco2)nc1Nc1cc(C2CC2)[nH]n1 [Compound 164, 5-chloro-N-(5-cyclopropyl-1H-pyrazol-3-yl)-2-(furan-2-yl)pyrimidin-4-amine] | 0.1 to 0.5
36 | CC(=O)NCCNS(=O)(=O)c1ccc(-c2ncc(Br)c(Nc3cc(C4CC4)[nH]n3)n2)s1 [Compound 166, N-(2-(5-(5-bromo-4-(5-cyclopropyl-1H-pyrazol-3-ylamino)pyrimidin-2-yl)thiophene-2-sulfonamido)ethyl)acetamide] | 0.01 to 0.05
